Assay results reported in PubChem BioAssay AID2060352 (Molecular Pharmacology Branch, DTP, NCI, 2025).
Values joined by “and” are separate entries in the source; they are usually repeats but may differ in a detail not shown here. Equal values may be shown once.

System: 616215-338-R-J1-PDC spheroid with HUVEC/MSC, viability
Test: Anticancer human tumor 616215-338-R-J1-PDC patient-derived colon adenocarcinoma cell line growth inhibition [TAK]
Conditions: for viability, T/C: stronger effect = lower value
Description: Combinatorial screen of targeted agents with TAK-243 and ipatasertib in multi-cell type tumor spheroids
A high-throughput screen of multi-cell type tumor spheroids was designed to identify active combinations of targeted small molecules and TAK-243 or ipatasertib. Complex spheroids include a stromal component modeled by human endothelial cells (HUVEC) and fibroblasts modeled by human mesenchymal stem cells (MSCs). The concentration ranges selected for each drug and investigational agent were based upon clinically achievable concentrations if the clinical Cmax of the agent was known.
Compounds. The drugs and investigational agents: TAK-243 (785004), ipatasertib (767898), everolimus (733504), selumetinib (741078), bortezomib (756655), trametinib (758246), ixazomib (758254), vemurafenib (761431), dabrafenib (764134), sapanisertib (764658), alpelisib (765974), and copanlisib (816437), were obtained from the National Cancer Institute (NCI) Developmental Therapeutics Program Chemical Repository. The FDA-approved anticancer drug set is available from the NCI Developmental Therapeutics Program. […] The stock solutions were prepared in dimethyl sulfoxide (DMSO, Sigma-Aldrich, St. Louis, MO, cat. D2650) at 800-fold the tested concentration and stored at -70 degrees C prior to their use. All drugs and investigational agents were tested over a range starting from a high concentration at or near the clinical Cmax and decreasing in half-log increments. If the clinical Cmax for an agent had not been determined, the highest concentration tested was 10 microM.
NCI60 Cell Culture. NCI60 cell lines were obtained from the NCI Developmental Therapeutics Program Tumor Repository. For each lot of cells, the Repository performed Applied Biosystems AmpFLSTR Identifiler testing with PCR amplification to confirm consistency with the published Identifier STR profile for each cell line. Cells were kept in continuous culture for no more than 20 passages. The optimal seeding densities for each of the cell lines at each time point assessed were determined prior to performing the concentration response studies. Briefly, the NCI60 human tumor lines were grown as monolayers in RPMI 1640 medium supplemented with 10% FBS and 2 mmol/L L-glutamine.
An additional 2 lines were from the NCI60 cell line panel including melanomas, MALME-3M and SK-MEL-2. Pooled donor human umbilical vein endothelial cells (HUVEC, Lonza, cat. CC-2519) and human mesenchymal stem cells (hMSC, Lonza, cat. PT-2501) were purchased from Lonza (Walkersville, MD).
PDMR cell lines were grown in complete medium (DC medium): Dulbecco's modified Eagle's medium (DMEM)/F12 supplemented with 5% fetal bovine serum (FBS), 2 mM L-glutamine, 100 U/mL penicillin and 100 µg/ml streptomycin, 0.4 µg/ml hydrocortisone, 10 ng/ml epidermal growth factor (EGF) recombinant human protein, 24 µg/mL adenine, and 0.1 mg/mL primocin. During culture from frozen stock vials, PDMR cells were cultured in the same medium containing 10 µM Y-27632 (see Table 3). The PDCs were cultured in complete DMEM/F12 media without 10 microM Y-27632 dihydrochloride for at least two passages prior to the screen. The pooled donor HUVEC and hMSC were cultured in endothelial cell growth medium 2 (PromoCell, Heidelberg, Germany, cat. C-22011) and mesenchymal stem cell growth medium 2 (PromoCell, cat. C-28009), respectively. For all experiments, HUVEC and hMSC were used at passages </=5.
For the pre-screen, cell seeding densities were determined from a titration spanning the range from 5,000 to 313 cells per well. The mct-spheroids including 60% malignant cells, 25% HUVEC and 15% MSC dispensed as a mixture into U-bottom Ultra-Low Attachment 384-well plates (Corning, NY)
High-throughput Drug Combination Screening.
Prior to their inoculation into 384-well plates, malignant cells, HUVEC, and hMSC were removed from T flasks using TrypLE express (Thermo Fisher Scientific, cat. 12605036) and harvested by centrifugation for 5 min at 233 x g. […]
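Also: spheroids exposed to drugs for 7 days before readout.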

Work on `CC(C)CC(NC(=O)CNC(=O)c1cc(Cl)ccc1Cl)B1OC(=O)CC(CC(=O)O)(C(=O)O)O1` (stereo unspecified) + CC(C)NCC(C(=O)N1CCN(c2ncnc3c2C(C)CC3O)CC1)c1ccc(Cl)cc1 yielded an IC50 (curve of first compound, second compound 0.3 µM) of 21 nM, an IC50 (curve of first compound, second compound 0.949 µM) of 20.7 nM and an IC50 (curve of first compound, second compound 3 µM) of 14.2 nM. For the same compound, the IC50 (curve of first compound, second compound 9.49 µM) was under 0.316 nM, the IC50 (curve of first compound, second compound 30 µM) was under 0.316 nM and the viability, T/C (second compound 0.3 µM, first compound 0.000316 µM) was 115%. It also gave a viability, T/C (second compound 0.3 µM, first compound 0.001 µM) of 123%, a viability, T/C (second compound 0.3 µM, first compound 0.00316 µM) of 122% and a viability, T/C (second compound 0.3 µM, first compound 0.01 µM) of 105%. The viability, T/C (second compound 0.3 µM, first compound 0.0316 µM) was 19.7%, the viability, T/C (second compound 0.3 µM, first compound 0.1 µM) was 0.11% and the viability, T/C (second compound 0.949 µM, first compound 0.000316 µM) was 134%. It also gave a viability, T/C (second compound 0.949 µM, first compound 0.001 µM) of 136%, a viability, T/C (second compound 0.949 µM, first compound 0.00316 µM) of 132% and a viability, T/C (second compound 0.949 µM, first compound 0.01 µM) of 129%. It also gave a viability, T/C (second compound 0.949 µM, first compound 0.0316 µM) of 4.16%, a viability, T/C (second compound 0.949 µM, first compound 0.1 µM) of 0.13% and a viability, T/C (second compound 3 µM, first compound 0.000316 µM) of 78.8%. It also gave a viability, T/C (second compound 3 µM, first compound 0.001 µM) of 68.6%, a viability, T/C (second compound 3 µM, first compound 0.00316 µM) of 57.7% and a viability, T/C (second compound 3 µM, first compound 0.01 µM) of 76.5%. The viability, T/C (second compound 3 µM, first compound 0.0316 µM) was 3.6%, the viability, T/C (second compound 3 µM, first compound 0.1 µM) was 0.77% and the viability, T/C (second compound 9.49 µM, first compound 0.000316 µM) was 23.4%. The viability, T/C (second compound 9.49 µM, first compound 0.001 µM) was 21.8%, the viability, T/C (second compound 9.49 µM, first compound 0.00316 µM) was 23.6% and the viability, T/C (second compound 9.49 µM, first compound 0.01 µM) was 23.7%. The viability, T/C (second compound 9.49 µM, first compound 0.0316 µM) was 1.97%, the viability, T/C (second compound 9.49 µM, first compound 0.1 µM) was 0.97% and the viability, T/C (second compound 30 µM, first compound 0.000316 µM) was 11.2%. For the same compound, the viability, T/C (second compound 30 µM, first compound 0.001 µM) was 9.33%, the viability, T/C (second compound 30 µM, first compound 0.00316 µM) was 10.7% and the viability, T/C (second compound 30 µM, first compound 0.01 µM) was 8.93%. It also gave a viability, T/C (second compound 30 µM, first compound 0.0316 µM) of 2.11% and a viability, T/C (second compound 30 µM, first compound 0.1 µM) of 0.25%.
With `CC(C)NCC(C(=O)N1CCN(c2ncnc3c2C(C)CC3O)CC1)c1ccc(Cl)cc1` (stereo unspecified) the viability, T/C (compound 9.49 µM) was 26.9% [middle of 10 runs], the viability, T/C (compound 30 µM) was 12.7% [middle of 10 runs] and the IC50 (compound alone, run of 02/20/2020) was 6.46 µM [middle of 5 runs]. For the same compound, the IC50 (compound alone, run of 03/19/2020) was 5.01 µM [middle of 5 runs].
With `Cn1cnc2c(F)c(Nc3ccc(Br)cc3Cl)c(C(=O)NOCCO)cc21` the viability, T/C (compound 0.00949 µM) was 115% and 123%, the viability, T/C (compound 0.03 µM) was 109% and 107% and the viability, T/C (compound 0.0949 µM) was 98.8% and 134%. The viability, T/C (compound 0.3 µM) was 64.2% and 90.9%, the viability, T/C (compound 0.949 µM) was 43.6% and 36.8% and the viability, T/C (compound 3 µM) was 28.2% and 22.3%. The IC50 (curve of compound) was 632 nM and 695 nM.
